Measurements as given in paper PMC5381078, “Carboxylate derivatives of tributyltin (IV) complexes as anticancer and antileishmanial agents” (DARU Journal of Pharmaceutical Sciences, 2017).
≈ marks a conversion by molar mass, not a printed value. Numbered stars: 1 amine (or outer) side, 2 acyl side, 3 side chain; on linkers, the order of the positions; unused ones are H or OH. Bridge positions count the residues as written; N and C are the ends. Square brackets hold non-standard residues; d marks the D form. Peptide text beside a SMILES is read from it. X1 = CC(C)CCCCCCCCC[C@H](CC(=O)[*:1])O[*:2]

Experiments:
HepG2 cell line = assay: Cytotoxicity against HepG2 cell line (SRB assay); format: cell-based, human; details: for HepG2 % growth inhibition: 20 μg/mL
Protocol: Cytotoxicity was further evaluated against HepG2 cell line by sulforhodamine B (SRB) colorimetric assay. Dulbecco's Modified Eagle Medium (DMEM) supplemented with 10% FBS, 100 μg/mL streptomycin sulfate, 100 IU/mL penicillin G sodium and 0.25 μg/mL amphotericin B was used to culture HepG2 cells in CO2 (5%) incubator (Panasonic, Japan MCO-18 AC-PE) at 37 °C. An aliquot of 20 μL (1% DMSO in PBS) of samples was added to 180 μL of cell culture at an assay density of 1x10^5 cells/mL in 96-well plate. The plate was incubated at 37 °C for 72 h in CO2 incubator. Final concentration of compounds/standard was 20 μg/mL. Doxorubicin and 1% v/v DMSO in PBS ere used as positive and negative controls respectively. An equivalent number of cells in twelve wells of 96-well plate were incubated for 1 h at 37 °C and labeled as day zero control. Later, cells were fixed by adding 50 μL of cold 20% w/v TCA for 1 h at 4 °C. These were washed with tap water, air dried and stained with 50 μL of 0.057% w/v SRB in 1% v/v acetic acid for 30 min at room temperature. Cells were again washed with 1% v/v acetic acid, dried overnight and 200 μL of 10 mM Tris base (pH 10) was used to solubilize the bound dye for 1 h. Absorbance was measured at 515 nm using a microplate reader. Percentage of growth inhibition was calculated as: % inhibition = 100 – [(As – Ao) / (An – Ao) × 100], where, Ao, As and An are absorbance of day zero control, samples and negative control respectively. IC50 values were determined using 3-fold dilutions of the samples.

[1] = system: Leishmania tropica kwh 23 promastigotes; assay: Photosensitizing effect against leishmania; format: cell-based; details: for Photosensitizing effect % growth inhibition, Sunlight with IR filter: 15 min; for Photosensitizing effect % growth inhibition, Sunlight: 15 min sunlight
Protocol: Photosensitizing effect of tributyltin (IV) compounds was determined in three parallel groups. Samples and controls were exposed for 15 min to sunlight (168 W/m^2 of sun intensity) or sunlight with IR filter or dark conditions. The relative intensity of sunlight was measured by a CCD spectrometer (Ocean Optics, model HR4000). Later, plates were incubated at 25 °C for 72 h and cell viability was determined by MTT assay as given above. In this assay, samples were tested at concentrations showing less than 55% inhibition in primary antileishmanial assay to exclude false positive.

[2] = system: promastigotes of Leishmania tropica kwh 23; assay: Antileishmanial activity (MTT assay); format: cell-based; details: 72 h; for Antileishmanial % growth inhibition (mortality, lethality): 20 μg/mL; for Antileishmanial LC50: MTT
Protocol: Antileishmanial activity against the promastigotes of Leishmania tropica kwh 23 was evaluated by a quantitative colorimetric assay using 3-(4,5-dimethylthiazol-2-yl)-2, 5-diphenyl tetrazolium bromide (MTT) with minor modifications. […] […] Negative control wells contained 1% DMSO in PBS. All samples were run in triplicate. Afterwards, plates were incubated for 4 h at 24 °C with 20 μL of MTT (4 mg/mL in distilled water) to determine the cell viability. Supernatant from each well was carefully removed leaving behind formazan crystals. Colored formazan crystals were dissolved in 100 μL of DMSO by setting those aside for 1 h to ensure complete dissolution. Cell viability was estimated by measuring absorbance at 540 nm using microplate reader and percentage growth inhibition was calculated.

Streptomyces 85E = assay: Protein kinase inhibition assay (Streptomyces disc assay); format: cell-based; details: for MIC for PK inhibition: minimum inhibitory concentration
Protocol: Protein kinase inhibitory activity of the tributyltin (IV) compounds was measured against Streptomyces 85E strain using previously described protocol. Culture of Streptomyces 85E was refreshed in tryptic soy broth and 100 μL of this was swabbed on sterile ISP4 medium under aseptic conditions. […] Diameter (mm) of zone of inhibition (ZOI) around all samples and controls was measured as clear zone (CZ) and bald zone (BZ). […] BZ is indicative of PK inhibition.

isolated lymphocytes = assay: Cytotoxicity against isolated lymphocytes (MTT assay); format: cell-based, human; details: 24 h
Protocol: Lymphocytes were isolated using previously described protocol with some modifications. Informed consent was obtained from volunteers and procedure was conducted according to international ethical guidelines after gaining approval from the ethical committee of the Quaid-i-Azam University. A volume of 3 mL of blood was obtained from a healthy donor by venipuncture and diluted (1:1) with PBS. It was layered over 2 mL Histopaque-1077 and centrifuged at 800 × g for 20 min. The buffy coat was aspirated into 5 mL of PBS and centrifuged at […] for 4 min to pellet the lymphocytes. The pellet was suspended in 1 mL of RPMI-1640 and cell density was adjusted to get 1 × 10^5 cells/mL. For cytotoxicity determination, 20 μL of samples (20 μg/mL) or vincristine or 1% DMSO in PBS and 180 μL of lymphocyte suspension were incubated in 96-well plate at 37 °C for 24 h in humidified 5% carbon dioxide incubator (Panasonic, Japan MCO-18 AC-PE). Phytohaemagglutinin (PHA) was added in medium to stimulate lymphocyte growth. Afterwards, MTT assay was done as described above. IC50 values were determined using 3-fold dilutions of the samples.

THP-1 cell line = assay: Cytotoxicity against THP-1 cell line (MTT assay); format: cell-based, human; details: 72 h; for THP-1 % growth inhibition: 20 μg/mL
Protocol: Cytotoxicity of tributyltin (IV) compounds against THP-1 cell line was determined by 3-(4,5-dimethylthiazol-2-yl)-2,5-diphenyl tetrazolium bromide (MTT) assay. THP-1 cells were cultured in complete growth medium comprising RPMI-1640 (pH 7.4) supplemented with 2.2 g/L NaHCO3 and 10% v/v heat inactivated fetal bovine serum (HIFBS). An aliquot of 20 μL of samples in 1% DMSO in PBS and 180 μL of THP-1 cells were mixed in 96-well plate. Cells were added at an assay density of 1 × 10^4 cells/mL whereas sample/standard was added to achieve the final concentration of 20 μg/mL. The plate was incubated at 37 °C for 72 h in humidified 5% carbon dioxide incubator (Panasonic, Japan MCO-18 AC-PE). Vincristine and 1% DMSO in PBS were used as positive and negative controls respectively. After incubation, 20 μL of pre-filter sterilized MTT solution (4 mg/mL in distilled water) was added in plates and incubated for 4 h at 37 °C in CO2 incubator. Later, colored formazan crystals were separated by removing supernatant and dissolved in 100 μL of DMSO. Reaction was allowed to stand for 1 h to ensure complete dissolution and absorbance was measured at 540 nm using microplate reader (Biotech USA, Elx 800).

[3] = 6.25 μg/disc, BZ indicative of PK inhibition
[4] = 50 μg/disc, BZ indicative of PK inhibition, (-) shows no ZOI

SMILES	HepG2 % growth inhibition (HepG2 cell line; 72 h) [%]	HepG2 IC50 (HepG2 cell line; 72 h, 3-fold dilutions) [µg/mL]	Antileishmanial % growth inhibition (mortality, lethality) [2] [%]	Antileishmanial LC50 [2] [µg/mL]	ZOI BZ (bald zone) (Streptomyces 85E; [3]) [mm]	ZOI CZ (clear zone) (Streptomyces 85E; 50 μg/disc, (-) shows no ZOI) [mm]	MIC for PK inhibition (Streptomyces 85E) [μg/disc]	THP-1 % growth inhibition (THP-1 cell line) [%]	Photosensitizing effect % growth inhibition, Control ([1]; 0.092 μg/mL) [%]	Photosensitizing effect % growth inhibition, Dark ([1]; 0.092 μg/mL) [%]	Photosensitizing effect % growth inhibition, Sunlight with IR filter ([1]; 0.092 μg/mL) [%]	Photosensitizing effect % growth inhibition, Sunlight ([1]; 0.092 μg/mL) [%]	Isolated lymphocytes % growth inhibition (isolated lymphocytes; 20 μg/mL)	also measured
CCC[CH2][Sn]([CH2]CCC)([CH2]CCC)[O]C(=O)COc1ccc(OCC(=O)[O][Sn]([CH2]CCC)([CH2]CCC)[CH2]CCC)cc1 [Ch-409, bis(tributylstannyl) 2,2’-(1,4-phenylenebis(oxy))diacetate]	99.5 ± 3.15	0.08 ± 0.001	97.5 ± 1.98	0.954 ± 0.158	30 ± 1.17	30 ± 1.75	0.781 ± 0.002	19.4 ± 1.41	–	–	–	–	–	Photosensitizing effect % growth inhibition, Control ([1]; 0.55 μg/mL): 52.05 ± 1.98%; Photosensitizing effect % growth inhibition, Dark ([1]; 0.55 μg/mL): 56.9 ± 0.02%; Photosensitizing effect % growth inhibition, Sunlight with IR filter ([1]; 0.55 μg/mL): 47.5 ± 1.56%; Photosensitizing effect % growth inhibition, Sunlight ([1]; 0.55 μg/mL): 57.63 ± 1.99%; ZOI CZ (clear zone) (Streptomyces 85E; 6.25 μg/disc, (-) shows no ZOI): 12 ± 0.19 mm; ZOI BZ (bald zone) (Streptomyces 85E; [4]): 31 ± 1.5 mm; Isolated lymphocytes IC50 (isolated lymphocytes): 15.18 ± 0.75ǂ μg/mL
CCC[CH2][Sn]([CH2]CCC)([CH2]CCC)[O]C(=O)/C=C\C(=O)Nc1ccc(C(=O)OCC)cc1 [Ch-431, ethyl (Z)-4-(4-oxo-4-((tributylstannyl)oxy)but-2-enamido)benzoate]	96.2 ± 2.23	5.48 ± 0.16	97.5 ± 2.75	0.078 ± 0.002	26 ± 0.16	31 ± 0.78	0.049 ± 0.002	42.7 ± 1.13	50.7 ± 1.25	51.5 ± 1.35	47.5 ± 0.99	53.2 ± 1.55	10.7 ± 1.17ǂ %	ZOI CZ (clear zone) (Streptomyces 85E; 6.25 μg/disc, (-) shows no ZOI): 10 ± 0.33 mm; ZOI BZ (bald zone) (Streptomyces 85E; [4]): 33 ± 1.15 mm
CCC[CH2][Sn]([CH2]CCC)([CH2]CCC)[O]C(=O)CCC(=O)Nc1ccc(C(=O)[O][Sn]([CH2]CCC)([CH2]CCC)[CH2]CCC)cc1 [Ch-448, tributylstannyl 4-(4-oxo-4-((tributylstannyl)oxy)butanamido)benzoate]	97.1 ± 2.34	3.45 ± 0.63	96.5 ± 2.67	0.576 ± 0.088	25 ± 1.75	31 ± 1.05	0.781 ± 0.002	43.1 ± 2.29	–	–	–	–	23.6 ± 1.07ǂ %	Photosensitizing effect % growth inhibition, Control ([1]; 0.55 μg/mL): 54.65 ± 2.75%; Photosensitizing effect % growth inhibition, Dark ([1]; 0.55 μg/mL): 50.16 ± 1.19%; Photosensitizing effect % growth inhibition, Sunlight with IR filter ([1]; 0.55 μg/mL): 52.9 ± 1.17%; Photosensitizing effect % growth inhibition, Sunlight ([1]; 0.55 μg/mL): 49.7 ± 0.89%
CCC[CH2][Sn]([CH2]CCC)([CH2]CCC)[O]C(=O)c1ccccc1C(=O)Nc1cccc2ccccc12 [Ch-450, tributylstannyl 2-(naphthalene-1-ylcarbamoyl)benzoate]	98.5 ± 1.85	2.81 ± 0.34	97.4 ± 1.35	0.361 ± 0.017	28 ± 2.5	32 ± 1.13	0.195 ± 0.001	–	24.5 ± 1.63	26.34 ± 0.15	20.7 ± 0.43	32.12 ± 1.28	11.7 ± 0.05ǂ %	–
CCC[CH2][Sn]([CH2]CCC)([CH2]CCC)[O]C(=O)/C=C\C(=O)Nc1cccc(C)c1C [Ch-459, tributylstannyl (Z)-4-((2,3-dimethylphenyl)amino)-4-oxobut-2-enoate]	96.5 ± 4.66	0.62 ± 0.005	97.9 ± 3.99	0.323 ± 0.002	30 ± 0.24	35 ± 0.99	0.391 ± 0.004	–	20.1 ± 0.59	22.7 ± 1.05	30.14 ± 1.47	25.5 ± 1.75	–	Isolated lymphocytes IC50 (isolated lymphocytes): 5.78 ± 0.34ǂ μg/mL
COc1cccc2c1C(=O)c1c(O)c3c(c(O)c1C2=O)C[C@@](O)(C(=O)CO)C[C@@H]3O[C@H]1C[C@H](N)[C@H](O)[C@H](C)O1 [Doxorubicin, reference compound]	–	–	–	–	–	–	–	–	–	–	–	–	–	inhibition at 20 µg/mL (HepG2 cell line; Homo sapiens, HepG2, 20 μg/mL, 72 h, read-out: HepG2 % growth inhibition): 97.2 ± 1.14%; IC50 (HepG2 cell line; Homo sapiens, HepG2, 72 h, 3-fold dilutions): 5.36 ± 0.75 µg/mL (≈ 9.86 µM)
CC(C)CCCCCCCCC[C@@H]1CC(=O)N[C@@H](CCC(=O)O)C(=O)N[C@@H](CC(C)C)C(=O)N[C@H](CC(C)C)C(=O)N[C@@H](C(C)C)C(=O)N[C@@H](CC(=O)O)C(=O)N[C@H](CC(C)C)C(=O)N[C@@H](CC(C)C)C(=O)O1 [Surfactin, reference compound] (EL[dL]VD[dL]L; linker N-C via X1)	–	–	–	–	–	–	–	–	–	–	–	–	–	ZOI BZ (bald zone) (Streptomyces 85E; Surfactin positive control, printed 10 μg/mL): 23 ± 1.98 mm
CC[C@]1(O)C[C@H]2CN(CCc3c([nH]c4ccccc34)[C@@](C(=O)OC)(c3cc4c(cc3OC)N(C=O)[C@H]3[C@@](O)(C(=O)OC)[C@H](OC(C)=O)[C@]5(CC)C=CCN6CC[C@]43[C@@H]65)C2)C1 [Vincristine, reference compound]	–	–	–	–	–	–	–	–	–	–	–	–	–	inhibition at 20 µg/mL (isolated lymphocytes; Homo sapiens, Lymphocyte, 20 μg/mL, read-out: Isolated lymphocytes % growth inhibition): 76.3 ± 3.65%; IC50 (isolated lymphocytes; Homo sapiens, Lymphocyte): 6.66 ± 0.09 µg/mL (≈ 8.07 µM); inhibition at 20 µg/mL (THP-1 cell line; Homo sapiens, THP-1, 20 μg/mL, read-out: THP-1 % growth inhibition): 100%
